Test results from patent publication US20240391940A1, “FUSED RING-CONTAINING COMPOUND, APPLICATION THEREOF, AND COMPOSITION CONTAINING SAME” (GenEros Biopharma Ltd., priority 2020, published 2024).

What was measured:
[1] = PK profile in beagles (i.v. / oral gavage, plasma LC-MS); format: in vivo; settings: female, beagle, dog, analyte = labelled compound
Description: (§1) Method: SD rats from acceptable sources (N=3, female, 6-8 weeks, weighing 200-230 g, purchased from JH Laboratory Animal Co. LTD, SCXK (SH) 2017-0012 20170012001153) or beagles (N=3, not experimentally naive animals, female, weighing 6.55-8.62 kg, purchased from Beijing Marshall Biotech Co. Ltd., quality inspection number SCXK (BJ) 2016-0001 110318201100068072) were selected and administered, by intravenous injection or oral gavage (3 animals per route), corresponding doses of the test compound GEN1-117 or GEN1-284s (the sample for intravenous injection was dissolved in a solution of 10% DMSO, 10% Soltol HS15 and 80% PBS, and the sample for oral administration was dissolved in a 0.5% aqueous methylcellulose solution). Peripheral blood samples (150 μL) were taken (at 0, 0.083, 0.25, 0.5, 1, 2, 4, 8 and 24 h for the intravenous injection route; at 0, 0.25, 0.5, 1, 2, 4, 8 and 24 h for the oral injection route; into K2-EDTA anticoagulant tubes; centrifuged at 2000 g at 4 C for 5 min within 15 min), and plasma was separated and subjected to LC-MS analysis (LC-MS/MS-37, triple Quad 6500) using the conventional method with diclofenac as an internal standard. Mass spectrometry conditions: ESI cation, MRM detection:
(§2) HPLC conditions: mobile phase A: 0.1% FA in water, mobile phase B: 0.1% FA in ACN
(§3) Chromatography column: Waters ACQUITY UPLC HSS T3 (2.1×50 mm, 1.8 μm)
(§4) A test sample standard curve was prepared from 1, 2, 10, 30, 100, 300, 1000, 2700 and 3000 ng/mL (50% ACN in water), and 3 μL of standard-curve solution was mixed with 57 μL of same-species blank plasma. A test plasma sample (60 μL) was well mixed with 6 μL of 10% FA in water, and 30 μL of the mixture was taken and well mixed with 200 μL of the internal standard compound diclofenac (40 ng/mL in ACN). After the resulting mixture was vortexed and shaken for 1 min and centrifuged at 5800 rpm for 10 min, 100 μL of the supernatant was transferred to a new test plate, and 1 μL of solution was loaded on an LC-MS/MS system.

[2] = PK profile in SD rats (i.v. / oral gavage, plasma LC-MS); format: in vivo; settings: female, rat; for Vd: read-out: Vdss
Description: as §1, §2, §3, §4

[3] = test system: STAT5 Y694 phosphorylation; assay: HTRF experiment: STAT5 Y694 phosphorylation in Hela cells; format: cell-based, Human; settings: for Inhibition rate @10 μM: 10 μM compound, 2 h pretreatment, interferon stimulation 30 min
Method: A multifunctional microplate reader (TECAN; […] F PLEX); 96-well cell culture plates (Bioyong), HTRF 384-well low volume plates (Cisbio; Cat #66PL384025); Human interferon 0 (IFN-0) (GenScript; Cat #P01574), STAT5 phospho-Y694 kits (Cisbio; Cat #64AT5PEG).
Hela cells (American Type Culture Collection (ATCC), CCL-2) were cultured in a 96-well plate with DMEM containing 5% fetal bovine serum at a density of 3×10^4 cells/well. The cells were incubated overnight in a 37° C., 5% carbon dioxide humidified incubator. The next day, the original DMEM in the 96-well plate was blotted, and equal volumes of medium containing different concentrations of compounds (stock solutions of compounds prepared with dimethyl sulfoxide were diluted to desired concentrations in medium) were added for 2 h of pretreatment. The plate was left to stand in a 37° C. incubator. Human interferon 0 was then added to a final concentration of 10 nM for stimulation. The plate was gently shaken so the contents were well mixed, and the plate was then left to stand in a 37° C. incubator for 30 min.
The medium was removed, and the plate was washed once with an appropriate volume of PBS and then blotted dry. Then 1×lysis buffer was added at 40 μL/well, and the plate was left to stand at room temperature for 30 min (preparation of 1 mL of 1× lysis buffer: mixing well 740 μL of ddH2O with 250 μL of 4× lysis buffer and […]). After 30 min, the cells were repeatedly pipetted until the lysis buffer was not viscous (bubbles were avoided) so that sufficient lysis was achieved.
In an HTRF 384-well low volume plate, 4 μL of an antibody premix (containing two antibodies: Cryptate and d2: the two antibodies were each 20-fold diluted with detection buffer and were then mixed in equal volume to form the antibody premix) and 16 μL of the cell lysate were added to each well. The plate was sealed with a sealing membrane and then incubated overnight at room temperature in a dark place.
After the overnight incubation, signals at 665 nm and 620 nm were detected separately on a multifunctional microplate reader. The calculation formula for the STAT5 Y694 phosphorylation assay is: Ratio=[(signal 665 nm)/(signal 620 nm)]×10^4. A dimethyl sulfoxide-only treatment group was set as a negative control (RatioNegative), and an interferon 0 stimulation group without compound addition was set as a positive control (RatioPositive). The inhibition rates of different samples against STAT5 Y694 phosphorylation were normalized: inhibition rate=[1−(RatioExperiment−RatioNegative)/(RatioPositive−RatioNegative)]×100.

[4] = iv, GEN1-284s dosed i.v. 0.5 mg/kg
[5] = po, GEN1-284s dosed p.o. 5 mg/kg
[6] = iv, 1 mg/kg, GEN1-117 dosed i.v. 1 mg/kg
[7] = iv, 1 mg/kg, GEN1-284s dosed i.v. 1 mg/kg, analyte = labelled compound
[8] = iv, GEN1-117 dosed i.v. 1 mg/kg
[9] = po, 10 mg/kg, GEN1-117 dosed p.o. 10 mg/kg
[10] = po, 10 mg/kg, GEN1-284s dosed p.o. 10 mg/kg, analyte = labelled compound
[11] = po, GEN1-284s dosed p.o. 10 mg/kg, analyte = labelled compound
[12] = iv, GEN1-284s dosed i.v. 1 mg/kg, analyte = labelled compound

O=C(Cc1ccc2ncccc2c1)N1CCC(n2c(=O)[nH]c3cccc(C(F)(F)F)c32)CC1 [GEN1-117, 1-(1-(2-(Quinolin-6-yl)acetyl)piperidin-4-yl)-7-(trifluoromethyl)-1H-benzo[d]imidazol-2(3H)-one]
AUC(0-t) [1, 4]: 2000 ng·h/mL
half-life [1, 4]: 4.06 h
AUC(0-t) [1, 5]: 17900 ng·h/mL
Cmax [1, 5]: 2770 ng/mL
Tmax [1, 5]: 1.33 h
bioavailability [1, 5]: 89.8%
half-life [1, 5]: 4.18 h
AUC(0-t) [2, 6]: 1640 ng·h/mL
half-life [2, 6]: 4.2 h
AUC(0-t) [2, 7]: 1510 ng·h/mL
half-life [2, 7]: 4.16 h
clearance [2, 8]: 10.3 mL/min/kg
Vd [2, 8]: 2.75 L/kg
bioavailability ([2]; oral, GEN1-117 dosed p.o. 10 mg/kg vs i.v. 1 mg/kg): 2.6%
AUC(0-t) [2, 9]: 423 ng·h/mL
Cmax [2, 9]: 42.8 ng/mL
Tmax [2, 9]: 4 h
half-life [2, 9]: 4.28 h
AUC(0-t) [2, 10]: 14600 ng·h/mL
Cmax [2, 10]: 2440 ng/mL
Tmax [2, 10]: 2 h
half-life [2, 10]: 3.82 h
bioavailability [2, 11]: 96.3%
Inhibition rate @10 μM [3]: 89.31%

O=C(Cc1ccc2ncccc2c1)N1CCC(n2c(=O)n(COP(=O)([O-])[O-])c3cccc(C(F)(F)F)c32)CC1.[Na+].[Na+] [GEN1-284 salt, (2-Oxo-3-(1-(2-(quinolin-6-yl)acetyl)piperidin-4-yl)-4-(trifluoromethyl)-2,3-dihydro-1H-benzo[d]imidazol-1-yl)methyl disodium phosphate]
AUC(0-t) [1, 4]: 207 ng·h/mL
clearance [1, 4]: 43.5 mL/min/kg
half-life [1, 4]: 0.085 h
Vd ([1]; iv, GEN1-284s dosed i.v. 0.5 mg/kg, read-out: Vdss): 0.155 L/kg
AUC(0-t) [2, 12]: 2750 ng·h/mL
clearance [2, 12]: 6.23 mL/min/kg
half-life [2, 12]: 0.39 h
Vd [2, 12]: 0.047 L/kg
Tmax [2, 10]: 0.42 h
AUC(0-t) [2, 11]: 5.72 ng·h/mL
Cmax [2, 11]: 6.04 ng/mL
half-life [2, 11]: 0.95 h
IC50 [3]: 2.6 µM
Inhibition rate @10 μM [3]: 82.46%
